Measured values: article PMC9154793, “Design, synthesis, and biological evaluation of triazole-pyrimidine-methylbenzonitrile derivatives as dual A2A/A2B adenosine receptor antagonists” (Journal of Enzyme Inhibition and Medicinal Chemistry, 2022)
Read-outs that look alike come from different tables or passages of the source. One block for each compound: values may come before it.

Legend:
human A2A AR [1] = molecular target: T1, human A2A AR (Homo sapiens, UniProt P29274); assay: cAMP functional assay in CHO-K1/ADORA2A/Gα15 cells (NECA-stimulated, HTRF); type: cell-based; conditions: for fold less active than compound 7i (cAMP IC50, A2A receptor): ratio of cAMP IC50 values vs 7i;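 on all read-outs here: inhibition of NECA-driven intracellular cAMP build-up in the A2A-expressing cells, quantified with cAMP-d2 plus Eu3+-labelled anti-cAMP detection reagent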
T1 sequence (P29274 whole entry): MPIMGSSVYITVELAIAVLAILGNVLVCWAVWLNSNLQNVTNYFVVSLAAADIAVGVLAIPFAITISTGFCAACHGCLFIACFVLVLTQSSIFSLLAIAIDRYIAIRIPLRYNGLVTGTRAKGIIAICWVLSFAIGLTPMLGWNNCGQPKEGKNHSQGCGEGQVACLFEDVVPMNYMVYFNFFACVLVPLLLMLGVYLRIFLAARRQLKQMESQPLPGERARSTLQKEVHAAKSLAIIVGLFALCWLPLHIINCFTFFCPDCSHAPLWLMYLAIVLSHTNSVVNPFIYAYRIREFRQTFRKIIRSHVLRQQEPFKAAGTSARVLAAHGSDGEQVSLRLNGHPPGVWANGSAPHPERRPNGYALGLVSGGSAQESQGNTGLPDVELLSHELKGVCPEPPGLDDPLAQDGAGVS
Procedure: (§16) In the cAMP assay, CHO-K1/ADORA2A/Gα15 cells expressing human A2A AR and CHO-K1/ADORA2b/Gα15 cells expressing human A2B AR were activated by 5′-(N-ethylcarboxamido)adenosine (NECA) and triggered the accumulation of intracellular cAMP concentration.
(§17) CHO-K1/ADORA2A/Gα15 cells expressing human A2A AR and CHO-K1/ADORA2b/Gα15 cells expressing human A2B AR were both constructed by Genscript Biotech Corporation. […] The test stock solutions were diluted with different gradients for use. The procedure was exemplified by the cAMP functional assay on the A2A receptor: 10,000 cells/well of CHO-K1/ADORA2A/Gα15 were seeded in a 384-well plate in 20 μl of assay buffer. […] Then, 10 μl of detection reagent (cAMP-d2 and anti-cAMP-Eu3+) was added into each well of the plate and incubated at room temperature for 1 h.

human A2B AR = molecular target: T2, human A2B AR (Homo sapiens, UniProt P29275); assay: cAMP functional assay in CHO-K1/ADORA2b/Gα15 cells (NECA-stimulated, HTRF); type: cell-based
T2 sequence (P29275 1-332): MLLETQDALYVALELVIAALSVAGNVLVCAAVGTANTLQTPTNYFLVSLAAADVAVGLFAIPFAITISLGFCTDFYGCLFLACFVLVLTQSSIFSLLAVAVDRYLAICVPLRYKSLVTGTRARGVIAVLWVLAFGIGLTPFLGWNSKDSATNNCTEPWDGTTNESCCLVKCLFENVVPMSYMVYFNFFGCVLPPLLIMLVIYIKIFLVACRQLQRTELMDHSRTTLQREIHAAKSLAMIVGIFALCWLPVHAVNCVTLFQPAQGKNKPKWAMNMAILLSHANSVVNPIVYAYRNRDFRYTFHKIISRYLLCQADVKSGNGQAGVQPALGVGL
Procedure: as §16, §17

human A2A AR [2] = molecular target: T1, human A2A AR; assay: A2A AR radioligand binding assay ([3H]-ZM241385, HEK-293 cell membranes)
Procedure: We further tested the IC50 values of compounds 7f, 7i, 17, 22, and AB928 in inhibiting the cAMP production of CHO cells expressing hA2A AR or hA2B AR (Table 2). […] In addition, the competitive binding experiments of compounds 7f, 7i, and AB928 were performed using membrane preparation of HEK-293 cells expressing human A2A AR (Table 3).
The target compounds were tested to evaluate their affinity for the A2A AR on HEK-293 cell membranes expressing human A2A AR. [^3H]-ZM241385 was used as a radioligand. The assay buffer (50 mM Tris-HCl, pH 7.4; 10 mM MgCl2; 1 mM EDTA; 1 μg/ml adenosine deaminase), wash buffer (50 mM Tris-HCl, pH 7.4; 154 mM NaCl), and 0.5% PEI solution were prepared and stored at 4 °C for use. The affinities were tested following the procedure reported by Hu et al[4].

[3] = Metabolic stability in human liver microsomes; type: in vitro ADME; conditions: human, microsomes
Procedure: (§1) The metabolic stability is an important focus for further compound optimisation. Compounds 7f, 7i, and AB928 were chosen to evaluate the stability in rat liver microsomes and human liver microsomes. For the microsomal metabolic experiment, 7-ethoxycoumarin (7-EC) was used as a control. As shown in Table 4 (see Supporting information for raw data), the CLint(liver) of 7-EC in rats and humans was 10.0 and 9.0 ml/min/g liver, respectively, indicating the experimental test system was reliable.
(§2) Metabolic stabilities of compounds 7f, 7i, and AB928 in liver microsomes were studied with pooled human (male) liver microsomes solution (20 mg/ml) and male Sprague–Dawley rats pooled liver microsomes solution (20 mg/ml) purchased from Research Institute for Liver Diseases (Shanghai) Co. Ltd. Both liver microsomes solutions (140 μl) were diluted by 3948 μl of water and 280 μl of phosphate buffered saline. The assay procedure: 640 μl of diluted liver microsomes solution was added to a solution of compound working solution (16 μl, 25 μM in DMSO) and the mixed solution was incubated at 37 °C for 5 min. Then 160 μl of NADPH generating system was added and take out 100 μl from the mixed solution was added 200 μl of acetonitrile solution to stop the reaction at the set incubation time (0 min, 10 min, 20 min, 30 min, 40 min, 50 min, and 60 min). All stopped reaction solutions were vortex mixed (3 min) and centrifuged (10,000 rpm, 4 °C for 10 min). Then 50 μl of the supernatant was analysed by UPLC-MS/MS system (details of the analytical method see Supporting information). […]
(§3) 8. Metabolic stability in human and rat liver microsomes
(§4) Metabolic stabilities of compounds 7f, 7i and AB928 in liver microsomes were studied with pooled human (male) liver microsomes solution (20 mg/mL) and male Sprague - Dawley rats pooled liver microsomes solution (20 mg/mL) purchased from Research Institute for Liver Diseases (Shanghai) Co. Ltd. Both liver microsomes solutions (140 μL) were diluted by 3948 μL of water and 280 μL of phosphate buffered saline. The assay procedure: 640 μL of diluted liver microsomes solution was added to a solution of compound working solution (16 μL, 25 μM in DMSO) and the mixed solution was […]
(§5) (1 picture or pasted object on this page, not shown here) […]
(§6) incubated at 37 ℃ for 5 min. Then 160 μL of NADPH generating system was added and take out 100 μL from the mixed solution was added 200 μL of acetonitrile solution to stop the reaction at the set incubation time (0 min, 10 min, 20 min, 30 min, 40 min, 50 min, and 60 min). All stopped reaction solutions were vortex mixed (3 min) and centrifuged (10000 rpm, 4 ℃ for 10 min). Then 50 μL of the supernatant was analyzed […]
(§7) 8.2 Chromatography and mass spectrometry conditions
(§8) UPLC was performed using an […] UPLC system (Waters, Milford, MA, […]
(§9) USA). Separation was achieved on a Waters BEH C18 column(100 mm × 2.1 mm， 1.7 μm) at 40 ℃. The injection volume of the sample solution was 5 μL. The mobile phase consisted of water (0.1% formic acid and ammonium acetate) and acetonitrile solution (20:80, v/v) at a flow rate of 0.4 mL/min within a running time of 6 min. Mass spectrometric analysis was performed on a Waters Xevo TQ-S triple quadrupole instrument using electrospray ionization in positive mode. Quantification was performed using multiple reaction monitoring (MRM) mode to monitor precursor-product ion transitions (Table S1).
(§10) Table S1. Conditions of MRM Detection. […]
(§11) Table S2. Raw data of metabolic stability in human and rat liver microsomes. […]
(§12) (min) Hum Rat Hum Rat Hum Rat Hum Rat
(§13) 9. Analytical method of pharmacokinetics assay
(§14) Animal experiments were performed according to the institutional ethical guidelines on animal care and approved by the Institute Animal Care and Use Committee at Binzhou […]
(§15) Female Bal b/c mice (sourced from Jinan Pengyue Experimental Animal Breeding […]

[4] = Metabolic stability in rat liver microsomes; type: in vitro ADME, Sprague–Dawley rats
Procedure: as §1, §2, §3, §4, §5, §6, §7, §8, §9, §10, §11, §12, §13, §14, §15

[5] = CHO-K1, compound at 10 nM, relative to ZM241385 at 1 μM, mean ± SEM, read-out: hA2A AR (%) inhibition of cAMP, 10 nM
[6] = CHO-K1, compound at 100 nM, relative to ZM241385 at 1 μM, mean ± SEM, read-out: hA2A AR (%) inhibition of cAMP, 100 nM
[7] = CHO-K1, compound at 1000 nM, relative to ZM241385 at 1 μM, mean ± SEM, read-out: hA2A AR (%) inhibition of cAMP, 1000 nM
[8] = CHO-K1, compound at 100 nM, relative to ZM241385 at 1 μM, mean ± SEM, read-out: hA2B AR (%) inhibition of cAMP, 100 nM
[9] = CHO cells expressing hA2A AR, mean ± SEM, read-out: cAMP IC50 hA2A AR
[10] = CHO cells expressing hA2B AR, mean ± SEM, read-out: cAMP IC50 hA2B AR

SMILES: Cc1c(C#N)cccc1-c1cc(-c2cn(Cc3cccc(C(=O)NCCO)n3)nn2)nc(N)n1 [Compound 7j, 6-((4-(2-Amino-6-(3-cyano-2-methylphenyl)pyrimidin-4-yl)-1H-1,2,3-triazol-1-yl)methyl)-N-(2-hydroxyethyl)picolinamide]
inhibition at 0.01 µM (human A2A AR [1]; [5]): 22.4 ± 6.68%
inhibition at 0.1 µM (human A2A AR [1]; [6]): 82.2 ± 1.26%
inhibition at 1 µM (human A2A AR [1]; [7]): 101 ± 4.62%
inhibition at 0.1 µM (human A2B AR; [8]): 82.4 ± 4.52%
melting point: 208 to 209 °C

SMILES: COc1cccc(Cn2cc(-c3cc(-c4cccc(C#N)c4C)nc(N)n3)nn2)c1 [Compound 7m, 3-(2-Amino-6-(1-(3-methoxybenzyl)-1H-1,2,3-triazol-4-yl)pyrimidin-4-yl)-2-methylbenzonitrile]
inhibition at 0.01 µM (human A2A AR [1]; [5]): 21.5 ± 4.32%
inhibition at 0.1 µM (human A2A AR [1]; [6]): 28.6 ± 4.03%
inhibition at 1 µM (human A2A AR [1]; [7]): 69.6 ± 1.01%
inhibition at 0.1 µM (human A2B AR; [8]): 69.4 ± 4.01%
melting point: 163 to 164 °C

SMILES: COc1ccc(Cn2cc(-c3cc(-c4cccc(C#N)c4C)nc(N)n3)nn2)cc1 [Compound 7n, 3-(2-Amino-6-(1-(4-methoxybenzyl)-1H-1,2,3-triazol-4-yl)pyrimidin-4-yl)-2-methylbenzonitrile]
inhibition at 0.01 µM (human A2A AR [1]; [5]): 18.8 ± 3.88%
inhibition at 0.1 µM (human A2A AR [1]; [6]): 29.8 ± 0.38%
inhibition at 1 µM (human A2A AR [1]; [7]): 54.8 ± 2.41%
inhibition at 0.1 µM (human A2B AR; [8]): 63.5 ± 4.93%
melting point: 149 to 150 °C

SMILES: Cc1ccc(-c2cc(-c3cn(Cc4cccc(C(C)(C)O)n4)nn3)nc(N)n2)o1 [Compound 17, 2-(6-((4-(2-Amino-6-(5-methylfuran-2-yl)pyrimidin-4-yl)-1H-1,2,3-triazol-1-yl)methyl)pyridin-2-yl)propan-2-ol]
IC50 (human A2A AR [1]; [9]): 321 ± 94 nM
inhibition at 0.01 µM (human A2A AR [1]; [5]): 17.6 ± 2.78%
inhibition at 0.1 µM (human A2A AR [1]; [6]): 92.28 ± 0.61%
inhibition at 1 µM (human A2A AR [1]; [7]): 92.7 ± 2.87%
fold less active than compound 7i (cAMP IC50, A2A receptor) (human A2A AR [1]): 52 fold
IC50 (human A2B AR; [10]): 80 ± 13.4 nM
inhibition at 0.1 µM (human A2B AR; [8]): 64.4 ± 0.89%
melting point: 188 to 189 °C

More lines, now with the values ahead:

IC50 (human A2A AR [1]): 2.75 ± 0.12 nM
inhibition at 0.01 µM (human A2A AR [1]; CHO-K1, read-out: hA2A AR (%) inhibition of cAMP, 10 nM): 20 ± 6.46%
inhibition at 0.1 µM (human A2A AR [1]; CHO-K1, read-out: hA2A AR (%) inhibition of cAMP, 100 nM): 96.8 ± 7.16%
inhibition at 1 µM (human A2A AR [1]; CHO-K1, read-out: hA2A AR (%) inhibition of cAMP, 1000 nM): 101 ± 5.55%
IC50 (human A2B AR): 25.5 ± 0.35 nM
inhibition at 0.1 µM (human A2B AR; CHO-K1, read-out: hA2B AR (%) inhibition of cAMP, 100 nM): 103 ± 1.04%
IC50 (human A2A AR [2]): 25.2 ± 0.74 nM
CLint(liver) Hum [3]: 0.17 mL/min/g
half-life at 0.49 µM ([3]; male): 7.22 h
remaining at 10 min, 0.49 µM ([3]; male): 96.2%
remaining at 20 min, 0.49 µM ([3]; male): 104%
remaining at 0.5 h, 0.49 µM ([3]; male): 97%
remaining at 40 min, 0.49 µM ([3]; male): 91.8%
remaining at 50 min, 0.49 µM ([3]; male): 89%
remaining at 1 h, 0.49 µM ([3]; male): 94.4%
remaining at 10 min, 0.49 µM ([4]; male, Sprague-Dawley, pooled rat liver microsomes, rat liver microsomes, 10 min): 74.7%
remaining at 20 min, 0.49 µM ([4]; male, Sprague-Dawley, pooled rat liver microsomes, rat liver microsomes, 20 min): 67.4%
remaining at 0.5 h, 0.49 µM ([4]; male, Sprague-Dawley, pooled rat liver microsomes, rat liver microsomes, 30 min): 53.1%
remaining at 40 min, 0.49 µM ([4]; male, Sprague-Dawley, pooled rat liver microsomes, rat liver microsomes, 40 min): 42.8%
remaining at 50 min, 0.49 µM ([4]; male, Sprague-Dawley, pooled rat liver microsomes, rat liver microsomes, 50 min): 35.6%
remaining at 1 h, 0.49 µM ([4]; male, Sprague-Dawley, pooled rat liver microsomes, rat liver microsomes, 60 min, read-out: Remaining (%, T = 60min) Rat): 28.1%
half-life at 0.49 µM ([4]; male, Sprague-Dawley, rat, pooled rat liver microsomes, read-out: T1/2 Rat): 0.563 h
CLint(liver) Rat ([4]; rat liver microsomes): 2.15 mL/min/g
SMILES: Cc1c(C#N)cccc1-c1cc(-c2cn(Cc3cccc(C(C)(C)O)n3)nn2)nc(N)n1 [AB928, reference compound]

IC50 (human A2A AR [1]; [9]): 67.2 ± 10.9 nM
inhibition at 0.01 µM (human A2A AR [1]; [5]): 22.4 ± 11.9%
inhibition at 0.1 µM (human A2A AR [1]; [6]): 94.7 ± 4.43%
inhibition at 1 µM (human A2A AR [1]; [7]): 93.6 ± 2.76%
fold less active than compound 7i (cAMP IC50, A2A receptor) (human A2A AR [1]): 11 fold
IC50 (human A2B AR; [10]): 178 ± 9.89 nM
inhibition at 0.1 µM (human A2B AR; [8]): 19.9 ± 1.85%
melting point: 76 to 77 °C
SMILES: CC(C)(O)c1cccc(Cn2cc(-c3cc(-c4cccc(CF)c4)nc(N)n3)nn2)n1 [Compound 22, 2-(6-((4-(2-amino-6-(3-(fluoromethyl)phenyl)pyrimidin-4-yl)-1H-1,2,3-triazol-1-yl)methyl)pyridin-2-yl)propan-2-ol]
